Experiment [1] is filed under the species Mus musculus. Kind of experiment: Tested for inhibitory activity against B lymphocyte proliferation induced by LPS at 10e-5 M; significantly potentiated the proliferation. The format is functional.
The species named for experiment [2] is Mus musculus. Kind of experiment: Tested for inhibitory activity against T lymphocyte proliferation induced by PHA; showed no suppressive effect. The format is functional.
For experiment [3], the species on record is Mus musculus. Kind of experiment: Tested for inhibitory activity against T lymphocyte proliferation induced by Con A at 10e-5 M; slightly suppressed the proliferation. The format is functional.
The species named for experiment [4] is Mus musculus. Kind of experiment: Tested for inhibitory activity against T lymphocyte proliferation induced by PHA at 10e-7 M; showed potent suppressive effect. The format is functional.
Experiment [5] is filed under the species Mus musculus. Kind of experiment: Tested for inhibitory activity against T lymphocyte proliferation induced by Con A at 10e-7 M; showed potent suppressive effect. The format is functional.
The species entered for experiment [6] is Mus musculus. Kind of experiment: Tested for inhibitory activity against B lymphocyte proliferation induced by LPS at 10e-7 M; suppressed the proliferation. The format is functional.
Experiment [7] has as its system Mus musculus. Kind of experiment: Tested for inhibitory activity against contact ear dermatitis in mice induced by dinitrofluorobenzene by consecutive oral administration in the primary sensitizing phase; showed inhibition. The format is functional, organism-based.
Experiment [8] concerns Rattus norvegicus. Kind of experiment: Tested for in vivo inhibitory activity against asthmatic bronchoconstriction in rats induced by antigen-antibody reaction; showed inhibition. The format is functional, organism-based.
The species named for experiment [9] is Mus musculus. Kind of experiment: Tested for inhibitory activity against B lymphocyte proliferation induced by LPS at 10e-5 M; significantly suppressed the proliferation. The format is functional.
Experiment [10] relates to Rattus norvegicus. Kind of experiment: Tested for in vivo inhibitory activity against passive cutaneous anaphylaxis (PCA) reaction in rats; showed inhibition. The format is functional, organism-based.
Experiment [11] is filed under the species Mus musculus. Kind of experiment: Tested for inhibitory activity against T lymphocyte proliferation induced by Con A at 10e-6 to 10e-5 M; significantly suppressed the proliferation. The format is functional.
Experiment [12] relates to Mus musculus. Kind of experiment: Tested for inhibitory activity against hind paw edema sensitized with sheep red blood cells (SRBC) in both sensitizing and inflammatory phases after oral administration; showed reduction.
The test system of experiment [13] is Rattus norvegicus. Kind of experiment: Tested for […] inhibitory activity against type 1 allergic reactions after oral administration; showed inhibition. The format is functional, organism-based.

Active and inactive are the calls of the source. The calls are words filed in the database; no cut-off is given here.

Consider `O=C1OC(c2ccc(O)cc2)Cc2cc(O)cc(O)c21` (stereo not drawn), for which the Activity result in the experiment listed under Mus musculus [1], in the experiment filed under Mus musculus [2] and in the experiment filed under Mus musculus [3] was “no suppressive effect” throughout.

Turning to `O=c1oc(-c2ccc(O)c(O)c2)cc2cc(O)cc(O)c12`, the Activity entry in the experiment filed under Mus musculus [1] and in the experiment listed under Mus musculus [2] was “no suppressive effect” in each case.

For the molecule `O=C(O)c1c(O)cccc1/C=C/c1ccc(O)c(O)c1`, the Activity result in the experiment listed under Mus musculus [1] and in the experiment filed under Mus musculus [2] was “no suppressive effect” throughout.

As for `COc1ccc([C@H]2Cc3cccc(O)c3C(=O)O2)cc1O`, the Activity entry in the experiment listed under Mus musculus [1] and in the experiment listed under Mus musculus [3] was “significantly potentiated the proliferation” throughout.

On to `O=C1O/C(=C\c2ccc(O)c(O)c2)c2cccc(O)c21`, for which the Activity result in the experiment filed under Mus musculus [1] and in the experiment filed under Mus musculus [2] was “no suppressive effect” each time.

With `O=C1OC(c2ccc(O)c(O)c2)Cc2cccc(O)c21` (stereo not drawn), the Activity entry in the experiment filed under Mus musculus [1], in the experiment listed under Mus musculus [2] and in the experiment filed under Mus musculus [3] was “no suppressive effect” in each case.

Take `O=C1OC(c2ccc(O)cc2)Cc2cccc(O)c21` (stereo not drawn): the Activity result in the experiment listed under Mus musculus [1] and in the experiment filed under Mus musculus [2] was “no suppressive effect” each time.

In the case of `O=c1oc(-c2ccc(O)cc2)cc2cccc(O)c12`, the Activity entry in the experiment listed under Mus musculus [1] and in the experiment listed under Mus musculus [2] was “no suppressive effect” in each case.

With `C[C@]12CCC(=O)C=C1CCC1[C@@H]2[C@@H](O)C[C@@]2(C)[C@H]1CC[C@]2(O)C(=O)CO` (single isomer, unassigned), the outcome in the experiment filed under Mus musculus [4], in the experiment filed under Mus musculus [5] and in the experiment listed under Mus musculus [6] was Active.

For `COc1ccc([C@H]2Cc3cc(O)cc(O)c3C(=O)O2)cc1O`, the Activity result in the experiment filed under Mus musculus [1] and in the experiment filed under Mus musculus [3] was “significantly potentiated the proliferation” in each case.

Take `O=C1OC(c2ccc(O)c(O)c2)Cc2cc(O)cc(O)c21` (stereo not drawn): the Activity result in the experiment filed under Mus musculus [1], in the experiment filed under Mus musculus [2] and in the experiment listed under Mus musculus [3] was “no suppressive effect” throughout.

As to `O=c1oc(-c2ccc(O)c(O)c2)cc2cccc(O)c12`, the Activity result in the experiment on Mus musculus [7], in the experiment on Rattus norvegicus [8], in the experiment filed under Mus musculus [9], in the experiment with Rattus norvegicus [10], in the experiment listed under Mus musculus [11] and with Mus musculus [12] was “inhibition” throughout. The Activity result in the experiment on Rattus norvegicus [13] is “inhibition”.

Source of the values: ChEMBL document CHEMBL1130730, “Immunomodulatory activity of thunberginol A and related compounds isolated from Hydrangeae Dulcis Folium on splenocyte proliferation activated by mitogens” (Bioorg Med Chem Lett, 1998).
